This note sets out measurements from paper PMC5082600, “New furoisocoumarins and isocoumarins from the mangrove endophytic fungus Aspergillus sp. 085242” (Beilstein Journal of Organic Chemistry, 2016).

pEC50: −log10 of the molar value.

As a reminder, the pEC50 is the EC50 on a negative log10 scale, so that one unit is a factor of ten. As a reminder, the melting point is the temperature, or range, at which the solid turns liquid.

Data set [1] is described as follows: DPPH free radical scavenging assay. As to conditions: DPPH 150 μM in MeOH, 30 min, room temperature, absorbance at 490 nm; vitamin C as positive control. How it is done:
The assay for DPPH radical scavenging activity was measured by a reported method, with slight modifications. Firstly, 180 μL of DPPH^· (150 μM in MeOH) and 20 μL of a series of test compound solutions (31.2, 62.5, 125, 250, 500 μM in MeOH) were mixed in each well of a 96-well microtiter plate. The reaction was measured by determination of the absorbance Asample+DPPH· using a microtiter plate reader at 490 nm after shaking for 30 min at room temperature in the dark. Twenty μL test samples of each concentration with 180 μL of MeOH were used as the blank measurement for each tested compound, and the absorbance was recorded as Asample. The absorbance of the mixture of 20 μL of MeOH and 180 μL of DPPH^· was recorded as ADPPH·, and the absorbance of the 200 μL of MeOH was measured as Ablank. The natural antioxidant vitamin C was used as a positive control. Calculations of the DPPH^· scavenging activity was performed according to the following equation: scavenging activity (%) = [1 − (Asample+DPPH· − Asample)/(ADPPH· − Ablank)] × 100%. All measurements were done in triplicate from two independent experiments. The reported EC50 was the average value of two independent experiments.
In general terms: Loss of DPPH colour is used to gauge radical scavenging.

The compound `CC(C)=C1Oc2c(ccc3cc(C)oc(=O)c23)C1=O` [Compound 1, 7-methyl-2-(propan-2-ylidene)-9H-furo[3,2-h]isochromene-3,9(2H)-dione] gave a pEC50 in data set [1] of 3.90.

On to `O=C1O[C@H]([C@@H](O)CO)C(O)=C1O` [vitamin C, reference compound], for which the pEC50 in data set [1] is 4.46.

In turn, `CC(C)c1cc2ccc3c(c2o1)C(=O)O[C@H](C)C3` [Compound 3, (R)-2-isopropyl-7-methyl-6,7-dihydro-9H-furo[3,2-h]isochromen-9-one] gave a pEC50 in data set [1] of 3.89.

The compound `CC(C)[C@H]1Oc2c(ccc3c2C(=O)O[C@H](C)C3)[C@H]1O` [Compound 2, asperisocoumarin B] gave a melting point of 179.4 to 181.4 °C.

Compound `COc1cc2c(c(O)c1COCc1c(OC)cc3c(c1O)C(=O)OCC3)C(=O)OCC2` [Compound 6, asperisocoumarin F] came in with a melting point of 201.1 to 203 °C.
